Consider one compound from patent publication US11666580B2, “Mechanism of resistance to bet bromodomain inhibitors” (Dana-Farber Cancer Institute, Inc., priority 2015, dated 2023).

Format in all cases: cell-based, human
The subject of assay [1] is TNBC cells. In words: Immunofluorescence microscopy for basal and luminal markers. Particulars: 3 days after JQ1 (500 nM). The method, then: Antibodies used for immunofluorescence were CK18 (Dako, M7010), CK17 (Dako, M7046), HMW (Dako, M0630), LMW (Dako, M0631), CD44 (NeoMarkers, MS-668-P1), CD24 (NeoMarkers, MS-1279-P1), p-STAT3 (Cell Signaling, 9145S), VIM (Dako, M073501), CDH1 (BD Biosciences, 610181), FLAG (Sigma, F1804), BrdU (Roche, 11170376001). Immunofluorescence experiments were performed in cultured cells or in whole sections of formalin-fixed paraffin embedded (FFPE) xenograft tumors. The staining was performed as described^50. Antibody dilutions were as follows: pSTAT3 (1:25), CD44 (1:100), CD24 (1:100), CK18 (1:200), CK17 (1:200), HMK (1:200), LMK (1:200), VIM (1:100), CDH1 (1:100), FLAG (1:50), and BrdU (1:200).

For assay [2], the system named is SUM149R cells. In words: Cell growth assay (viable cell numbers). Particulars: high concentrations (up to 20 μM) of JQ1. The method, then:
(§1) Cell viability and growth assays (FIGS. 1A-1B, FIGS. 3A-3E, 3G, FIGS. 5D-5F, FIGS. 6C, 6E, 6I, FIG. 7A, FIG. 10D, FIGS. 14A-14C), cycle, apoptosis, and MDR assays were performed in triplicates and repeated 2-3 times. For cell proliferation assays, cells were plated at 500 cells per well in 96-well plates and treated the next day with inhibitors, DMSO or doxycycline (500 ng). Cells were cultured at 37° C. with 5% CO2 in the media described-above, and cell viability was measured using CellTiter-Glo three days after treatments. For cell growth assays, cells were plated at 5000 (SUM159) or 20000 (SUM149) cells per well in 6-well plates and treated the next day with inhibitors. Cells were counted every three days by cell counter. Cellular apoptosis was analyzed with an APC AnnexinV/7ADD Apoptosis Detection kit (BD Pharmingen). AnnexinV/7AAD assessments and cell cycle graphics were generated using FlowJo software V7.6.1 for Windows (Tree Star). Senescence Beta-gal staining was performed using Senescence β-Galactosidase staining kit from Cell signaling. Briefly, after JQ1 treatment (500 nM) for 72 h, SUM159 and MDA-MB-231 cells were fixed by Fixative Solution for 15 min, followed by β-Galactosidase solution incubation overnight at 37° C. The staining was checked under microscope for the development of blue color. […] Briefly, SUM159 and SUM159R cells were treated with JQ1 or DMSO for 30 min in SUM medium. Verapamil was used as a positive control at 1:1000 dilution.

Assay [3] concerns SUM159 cells. In words: Cell growth assay (viable cell numbers). The following applies: low (0.5 μM) and high (2.0 μM) doses, 6 days. The method, then: as §1
For assay [4], the system named is SUM159R cells. The assay can be described thus: Cell growth assay (viable cell numbers). The following applies: high concentrations (up to 20 μM) of JQ1. The method, then: as §1
In assay [5] the test system is SUM149 cells. In words: Cell growth assay (viable cell numbers). Particulars: low (0.5 μM) and high (2.0 μM) doses, 6 days. The method, then: as §1
Assay [6] has as its system pSTAT3, pJAK2 and MYC in SUM159 cells. In words: Immunoblot kinetic study of signaling factors after JQ1. From the text: Immunoblotting and immunoprecipitation experiments were repeated 2-3 times.
Background: Immunoblotting shows a protein as a band on a membrane.

The structures appear in SMILES notation.

On to `Cc1sc2c(c1C)C(c1ccc(Cl)cc1)=N[C@@H](CC(=O)OC(C)(C)C)c1nnc(C)n1-2` [JQ1], for which, in assay [1], the “Basal markers (HMW cytokeratins)” value is reported as “decrease of high molecular-weight (HMW) cytokeratins”. In addition, the “Luminal markers (LMW cytokeratins, CK18)” value in assay [1] was “elevation of low molecular-weight (LMW) cytokeratins and cytokeratin 18 (CK18)”. Further, the Proliferation entry in assay [2] is “continue to proliferate linearly over time”; in assay [3], “severely impaired”; in assay [4] it was “continue to proliferate linearly over time”; in assay [5], “severely impaired”. In addition, the “pSTAT3 and pJAK2 levels” value in assay [6] (SUM159, after 12 hours) is “decrease in pSTAT3 and pJAK2”. Besides, in assay [6] (SUM159, at 24 hours), the MYC level result is given as “dose-responsive decrease in MYC”.
